In patent US12180388B2, “Method of treatment of a surface” (Conopco, Inc., priority 2018, dated 2024):

Key:
Aspergillus brasiliensis = assay: Single-species biofilm (microfouling) growth inhibition, crystal violet biomass; type: cell-based; conditions: 24 hours, untreated control 1.1
Protocol: (§1) Fresh stock solution of lactam was prepared at 20 mM in DMSO. Lactam stock was then serially diluted in tissue culture plates in 100% ethanol first ten-fold and subsequently to the desired concentrations. Plates were then left to dry overnight in a fume hood.
(§2) Single species plates were inoculated with each 1×10^6 bacteria/Aspergillus in marine broth and left for 24 hours. Multispecies plates were inoculated with 1×10^5 S. algae, V. anguillarium V. alginolyticus and 1×10^6 C. marina, A. brasiliensis, P. atlantica, C. lytica in marine broth and left for 24 hours, 48 and 72 hours. Plates were washed twice and left overnight to dry. Crystal violet (0.05% w/v) was added for 20 minutes and destained using 100% ethanol. Biomass was measured by optical density (OD) at 570 nm.
(§3) In this experiment, the plates were treated with lactam at levels of 0.0312 mM to 2 mM as well as an untreated control. The specific levels of lactam measured were of 0.0312 mM, of 0.0625 mM, of 0.125 mM, of 0.25 mM, of 0.5 mM, 1 mM, and 2 mM. This would equate to levels of from ˜6 ppm ([…]) to 400 ppm (2 mM), and to wt. % of 0.0006 wt. % ([…]) to 0.04 wt. % (2 mM). The lactam was provided in a DMSO/ethanol solvent to the plates. The plate was then inoculated with the marine organism or mixture thereof. The rate of growth of the culture was measured after 24 hours days by optical density.

Cellulophaga lytica = assay: as above; type: cell-based; conditions: 24 hours; for Optical Density (570 nm): untreated control 0.7; for lactam concentration with biofilm growth inhibition effect: Cellulophaga lytica
Protocol: as §1, §2, §3

Vibrio anguillarium = assay: as above; type: cell-based; conditions: 24 hours, untreated control 0.5
Protocol: as §1, §2, §3

[1] = tested on: mixture of the 7 marine organisms (Pseudoalteromonas atlantica, Cellulophaga lytica, Shewanella algae, Cobetia marina, Vibrio anguillarium, Vibrio …); assay: Multispecies biofilm (microfouling) growth inhibition, crystal violet biomass; type: cell-based, mixture of 7 marine organisms; conditions: for lactam concentration that inhibited biofilm growth: 7 marine organism mixture, 24, 48 and 72 hr
Protocol: as §2, with “Fresh stock solution of lactam was prepared at 20 mM in DMSO. Lactam stock was then serially diluted in tissue culture plates in 100% ethanol first ten-fold and subsequently to the desired concentrations. Plates were then left to dry overnight in a fume hood. Single” for “Single”
The marine species were as used for example 2: Shewanella algae, Cobetia marina, Vibrio alginolyticus, or Pseudoalteromonas atlantica, Aspergillus brasiliensis, Vibrio anguillarium, and Cellulophaga lytica. This time they were used in combination as a mixture to better model the marine environment, and the growth inhibition effect of the lactams on the challenging marine organism mixture was tested. This a challenging test as the presence of marine organisms where the lactam didn't have a growth inhibition effect would be expected to lead to biofilm growth. The results are shown in FIGS. 4 and 5 and Tables 2 and 3.

[2] = 0.0312 mM lactam, 24 hr, untreated control 1.3
[3] = 0.0312 mM lactam, 48 hr, untreated control 1.8
[4] = 0.0312 mM lactam, 72 hr, untreated control 1.1
[5] = 0.0625 mM lactam, 24 hr, untreated control 1.3
[6] = 0.0625 mM lactam, 48 hr, untreated control 1.8
[7] = 0.0625 mM lactam, 72 hr, untreated control 1.1
[8] = 0.125 mM lactam, 24 hr, untreated control 1.3
[9] = 0.125 mM lactam, 48 hr, untreated control 1.8
[10] = 0.125 mM lactam, 72 hr, untreated control 1.1
[11] = 0.25 mM lactam, 24 hr, untreated control 1.3
[12] = 0.25 mM lactam, 48 hr, untreated control 1.8
[13] = 0.25 mM lactam, 72 hr, untreated control 1.1
[14] = 0.5 mM lactam, 24 hr, untreated control 1.3
[15] = 0.5 mM lactam, 48 hr, untreated control 1.8
[16] = 0.5 mM lactam, 72 hr, untreated control 1.1
[17] = 1 mM lactam, 24 hr, untreated control 1.3
[18] = 1 mM lactam, 48 hr, untreated control 1.8
[19] = 1 mM lactam, 72 hr, untreated control 1.1
[20] = 2 mM lactam, 24 hr, untreated control 1.3
[21] = 2 mM lactam, 48 hr, untreated control 1.8
[22] = 2 mM lactam, 72 hr, untreated control 1.1

SMILES: C=C1NC(=O)C=C1c1ccc(Cl)cc1 [lactam 488, 4-(4-chlorophenyl)-5-methylene-pyrrol-2-one]
- Optical Density (570 nm) (Aspergillus brasiliensis; 0.0312 mM lactam): 0.5
- Optical Density (570 nm) (Aspergillus brasiliensis; 0.0625 mM lactam): 0.6
- Optical Density (570 nm) (Aspergillus brasiliensis; 0.125 mM lactam): 0.5
- Optical Density (570 nm) (Aspergillus brasiliensis; 0.25 mM lactam): 0.4
- Optical Density (570 nm) (Aspergillus brasiliensis; 0.5 mM lactam): 0.6
- Optical Density (570 nm) (Aspergillus brasiliensis; 1 mM lactam): 0.5
- Optical Density (570 nm) (Aspergillus brasiliensis; 2 mM lactam): 0.4
- Optical Density (570 nm) (Cellulophaga lytica; 0.0312 mM lactam): 0.9
- Optical Density (570 nm) (Cellulophaga lytica; 0.0625 mM lactam): 0.9
- Optical Density (570 nm) (Cellulophaga lytica; 0.125 mM lactam): 0.8
- Optical Density (570 nm) (Cellulophaga lytica; 0.25 mM lactam): 0.8
- Optical Density (570 nm) (Cellulophaga lytica; 0.5 mM lactam): 0.2
- Optical Density (570 nm) (Cellulophaga lytica; 1 mM lactam): 0.2
- Optical Density (570 nm) (Cellulophaga lytica; 2 mM lactam): 0.1
- lactam concentration with biofilm growth inhibition effect (Cellulophaga lytica): > 0.5 mM
- Optical Density (570 nm) (Vibrio anguillarium; 0.0312 mM lactam): 0.5
- Optical Density (570 nm) (Vibrio anguillarium; 0.0625 mM lactam): 0.6
- Optical Density (570 nm) (Vibrio anguillarium; 0.125 mM lactam): 0.7
- Optical Density (570 nm) (Vibrio anguillarium; 0.25 mM lactam): 0.6
- Optical Density (570 nm) (Vibrio anguillarium; 0.5 mM lactam): 0.2
- Optical Density (570 nm) (Vibrio anguillarium; 1 mM lactam): 0.1
- Optical Density (570 nm) (Vibrio anguillarium; 2 mM lactam): 0.1
- Optical Density (570 nm) [1, 2]: 1.3
- Optical Density (570 nm) [1, 3]: 1.5
- Optical Density (570 nm) [1, 4]: 1.4
- Optical Density (570 nm) [1, 5]: 1.4
- Optical Density (570 nm) [1, 6]: 1.8
- Optical Density (570 nm) [1, 7]: 1.4
- Optical Density (570 nm) [1, 8]: 1.2
- Optical Density (570 nm) [1, 9]: 1.7
- Optical Density (570 nm) [1, 10]: 1.2
- Optical Density (570 nm) [1, 11]: 1
- Optical Density (570 nm) [1, 12]: 1.3
- Optical Density (570 nm) [1, 13]: 1.0
- Optical Density (570 nm) [1, 14]: 0.6
- Optical Density (570 nm) [1, 15]: 0.6
- Optical Density (570 nm) [1, 16]: 0.4
- Optical Density (570 nm) [1, 17]: 0.3
- Optical Density (570 nm) [1, 18]: 0.2
- Optical Density (570 nm) [1, 19]: 0.1
- Optical Density (570 nm) [1, 20]: 0.1
- Optical Density (570 nm) [1, 21]: 0.1
- Optical Density (570 nm) [1, 22]: 0.1
- lactam concentration that inhibited biofilm growth [1]: > 0.25 mM

SMILES: C=C1NC(=O)C=C1c1ccc(C)cc1 [lactam 491, 5-methylene-4-(p-tolyl)pyrrol-2-one]
- Optical Density (570 nm) (Aspergillus brasiliensis; 0.0312 mM lactam): 0.4
- Optical Density (570 nm) (Aspergillus brasiliensis; 0.0625 mM lactam): 0.5
- Optical Density (570 nm) (Aspergillus brasiliensis; 0.125 mM lactam): 0.5
- Optical Density (570 nm) (Aspergillus brasiliensis; 0.25 mM lactam): 0.5
- Optical Density (570 nm) (Aspergillus brasiliensis; 0.5 mM lactam): 0.5
- Optical Density (570 nm) (Aspergillus brasiliensis; 1 mM lactam): 0.3
- Optical Density (570 nm) (Aspergillus brasiliensis; 2 mM lactam): 0.4
- Optical Density (570 nm) (Cellulophaga lytica; 0.0312 mM lactam): 0.9
- Optical Density (570 nm) (Cellulophaga lytica; 0.0625 mM lactam): 1.0
- Optical Density (570 nm) (Cellulophaga lytica; 0.125 mM lactam): 0.9
- Optical Density (570 nm) (Cellulophaga lytica; 0.25 mM lactam): 0.9
- Optical Density (570 nm) (Cellulophaga lytica; 0.5 mM lactam): 1.0
- Optical Density (570 nm) (Cellulophaga lytica; 1 mM lactam): 0.5
- Optical Density (570 nm) (Cellulophaga lytica; 2 mM lactam): 0.6
- lactam concentration with biofilm growth inhibition effect (Cellulophaga lytica): > 1 mM
- Optical Density (570 nm) (Vibrio anguillarium; 0.0312 mM lactam): 0.2
- Optical Density (570 nm) (Vibrio anguillarium; 0.0625 mM lactam): 0.7
- Optical Density (570 nm) (Vibrio anguillarium; 0.125 mM lactam): 0.7
- Optical Density (570 nm) (Vibrio anguillarium; 0.25 mM lactam): 0.3
- Optical Density (570 nm) (Vibrio anguillarium; 0.5 mM lactam): 0.4
- Optical Density (570 nm) (Vibrio anguillarium; 1 mM lactam): 0.2
- Optical Density (570 nm) (Vibrio anguillarium; 2 mM lactam): 0.1
- Optical Density (570 nm) [1, 2]: 1.2
- Optical Density (570 nm) [1, 3]: 1.7
- Optical Density (570 nm) [1, 4]: 1.3
- Optical Density (570 nm) [1, 5]: 1.1
- Optical Density (570 nm) [1, 6]: 1.8
- Optical Density (570 nm) [1, 7]: 1.2
- Optical Density (570 nm) [1, 8]: 0.9
- Optical Density (570 nm) [1, 9]: 1.6
- Optical Density (570 nm) [1, 10]: 1.0
- Optical Density (570 nm) [1, 11]: 0.9
- Optical Density (570 nm) [1, 12]: 1.4
- Optical Density (570 nm) [1, 13]: 0.9
- Optical Density (570 nm) [1, 14]: 1.0
- Optical Density (570 nm) [1, 15]: 1.2
- Optical Density (570 nm) [1, 16]: 0.9
- Optical Density (570 nm) [1, 17]: 0.7
- Optical Density (570 nm) [1, 18]: 1.3
- Optical Density (570 nm) [1, 19]: 1.2
- Optical Density (570 nm) [1, 20]: 0.2
- Optical Density (570 nm) [1, 21]: 0.2
- Optical Density (570 nm) [1, 22]: 0.3
- lactam concentration that inhibited biofilm growth [1]: > 0.25 mM
